# Where two headings read alike, the source gives them in different places.
# Experiments:
# HIV (LAV strain) = experiment: in vitro anti-HIV efficacy (antiviral test on HIV (LAV strain)-infected CEM cells); type: cell-based; settings: Human immunodeficiency virus 1, CCRF-CEM, read-out: ID50 (the 50% inhibitory dose)
# Procedure: Comparative in vitro anti-HIV efficacy^a and
# ^a The antiviral test was performed on HIV (LAV strain)infected CEM
# ^c The 50% inhibitory dose.
# [1] = cellular toxicity measured in CEM cells; type: cell-based; settings: human, read-out: TCID50 (the 50% tissue culture inhibitory dose)
# Procedure: cellular toxicity^b of AZT and d4T.
# ^b The cellular toxicity was measured in CEM cells.
# ^d The 50% tissue culture inhibitory dose.
# AIDS = settings: clinical trials, patients with AIDS; cited from earlier work
# HIV [2] = settings: cited from earlier work
# HIV [3] = settings: in several cell lines; cited from earlier work
SMILES,reported activity against HIV (HIV [2]),further results
"Cc1cn([C@H]2C[C@H](N=[N+]=[N-])[C@@H](CO)O2)c(=O)[nH]c1=O [AZT, 3'-azido-3'-deoxythymidine]",,IC50 (HIV (LAV strain)): 0.45 µM; CC50 [1]: 54 µM; efficacy in the treatment of AIDS (AIDS): efficacious agent in the treatment of AIDS in clinical trials
"Cc1cn([C@H]2C[C@H](F)[C@@H](CO)O2)c(=O)[nH]c1=O [FDDT, 3'-fluoro-3'-deoxythymidine]",active against HIV,
O[C@H]1[C@H](O)[C@@H](O)CN2CC[C@H](O)[C@H]12 [castanospermine],active against HIV,
"Nc1ccn([C@H]2C=C[C@@H](CO)O2)c(=O)n1 [d4C, 2',3'-dideoxy-2',3'-didehydrocytidine]",active against HIV,
"Cc1cn([C@H]2C=C[C@@H](CO)O2)c(=O)[nH]c1=O [d4T, 1-(2,3-Dideoxy-β-D-glycero-pent-2-enofuranosyl)thymine]",,"IC50 (HIV (LAV strain); in vitro anti-HIV efficacy, HIV (LAV strain) infected CEM cells): 0.33 µM; CC50 [1]: 39 µM; in vitro activity against HIV (HIV [3]): possesses in vitro activity against HIV in several cell lines"
CC(C)(S)[C@@H](N)C(=O)O [d-penicillamine],active against HIV,
"Nc1ncnc2c1ncn2[C@H]1CC[C@@H](CO)O1 [ddA, 2',3'-dideoxyadenosine]",active against HIV,
"Nc1ccn([C@H]2CC[C@@H](CO)O2)c(=O)n1 [ddC, 2',3'-Dideoxycytidine]",active against HIV,
O=C(O)P(=O)(O)O [foscarnet],active against HIV,
CC(=O)O[C@H]1C[C@@]2(C)[C@@H](C[C@@H](O)[C@H]3[C@@]4(C)CC[C@@H](O)[C@@H](C)[C@@H]4CC[C@@]32C)/C1=C(\CCC=C(C)C)C(=O)O [fusidic acid],active against HIV,
NC(=O)c1ncn([C@@H]2O[C@H](CO)[C@@H](O)[C@H]2O)n1 [ribavarin],active against HIV,
Cc1ccc(C(=O)Nc2ccc(S(=O)(=O)O)c3cc(S(=O)(=O)O)cc(S(=O)(=O)O)c23)cc1NC(=O)c1cccc(NC(=O)Nc2cccc(C(=O)Nc3cc(C(=O)Nc4ccc(S(=O)(=O)O)c5cc(S(=O)(=O)O)cc(S(=O)(=O)O)c45)ccc3C)c2)c1 [suramine],active against HIV,
